According to the supplement of paper PMC12592484:

Legend:
Test in all cases: drug sensitivity score (DSS2, normalised partial AUC of dose-response, 72 h CellTiter-Glo viability) (DSS (dimensionless)); higher = more sensitive (stronger growth inhibition / cytotoxicity); extreme values may be limits of the assay
22Rv1 = system: 22Rv1
Outline: (§1)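 Five doses spanning a 10,000-fold range were pre-dispensed into 384-well plates, into which low-passage primary prostate cancer-associated fibroblasts, PF179T, WPMY-1, LNCaP and 22Rv1 cells were seeded. After 72 h, CellTiter-Glo 2.0 luminescence measured viability, scaled to vehicle and positive-control wells. Higher values of the drug sensitivity score, a BREEZE-computed partial area under the fitted logistic dose–response curve divided by the log of the upper asymptote, mean greater sensitivity.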

CAF#3 = system: CAF#3 (primary prostate cancer-associated fibroblasts of myCAF-like type)
Outline: as §1

PF179T = system: PF179T
Outline: as §1

CAF#4 = system: CAF#4 (primary prostate cancer-associated fibroblasts of iCAF-like type)
Outline: as §1

CAF#2 = system: CAF#2 (primary prostate cancer-associated fibroblasts of iCAF-like type)
Outline: as §1

WPMY-1 = system: WPMY-1
Outline: as §1

CAF#7 = system: CAF#7 (primary prostate cancer-associated fibroblasts of myCAF-like type)
Outline: as §1

CAF#5 = system: CAF#5 (primary prostate cancer-associated fibroblasts of myCAF-like type)
Outline: as §1

CAF#6 = system: CAF#6 (primary prostate cancer-associated fibroblasts of iCAF-like type)
Outline: as §1

LNCAP = system: LNCAP
Outline: as §1

CAF#1 = system: CAF#1 (primary prostate cancer-associated fibroblasts of myCAF-like type)
Outline: as §1

Row | Compound | drug sensitivity score (22Rv1) | drug sensitivity score (CAF#3) | drug sensitivity score (PF179T) | drug sensitivity score (CAF#4) | drug sensitivity score (CAF#2) | drug sensitivity score (WPMY-1) | drug sensitivity score (CAF#7) | drug sensitivity score (CAF#5) | drug sensitivity score (CAF#6) | drug sensitivity score (LNCAP) | drug sensitivity score (CAF#1)
1 | CC(=O)Nc1cccc(-n2c(=O)n(C3CC3)c(=O)c3c(Nc4ccc(I)cc4F)n(C)c(=O)c(C)c32)c1 [Trametinib] (tested concentration range 0-250 nM) | 11.8 | 0 | 1.8 | 1.3 | 5.5 | 5.5 | 4.2 | 2.7 | 1.7 | 0 | 3
2 | CC1=C(/C=C/C(C)=C/C=C/C(C)=C/C(=O)O)C(C)(C)CCC1 [Tretinoin] (tested concentration range 1-10000 nM) | 0 | 0.2 | 8.2 | 0 | 5 | 0 | 5 | 1.7 | 2.7 | 0 | 1.4
3 | NC(=S)N/N=C/c1ncccc1N [Triapine] (tested concentration range 1-10000 nM) | 4 | 0.6 | 2.2 | 0 | 3.3 | 4.9 | 0.8 | 1.3 | 1 | 3.2 | 0
4 | O=c1[nH]c(=O)n([C@H]2C[C@H](O)[C@@H](CO)O2)cc1C(F)(F)F [Trifluridine] (tested concentration range 1-10000 nM) | 5 | 0 | 0.1 | 0 | 1 | 4.7 | 0 | 0 | 0 | 4 | 0
5 | O=C(CCCCCCC(=O)Nc1ccc([C@H]2O[C@@H](CSc3nc(-c4ccccc4)c(-c4ccccc4)o3)C[C@@H](c3ccc(CO)cc3)O2)cc1)NO [Tubacin] (tested concentration range 1-10000 nM) | 5.6 | 0 | 3.4 | 1.4 | 2.4 | 5.3 | 3.3 | 2.3 | 1.1 | 7 | 2
6 | CN1CCc2c(c3ccccc3n2Cc2ccc(C(=O)NO)cc2)C1 [Tubastatin A] (tested concentration range 1-10000 nM) | 2.3 | 0.6 | 0 | 2.8 | 0.2 | 5.9 | 0 | 0 | 0 | 1.4 | 0
7 | Cc1cc(Nc2ncnc3ccc(NC4=NC(C)(C)CO4)cc23)ccc1Oc1ccn2ncnc2c1 [Tucatinib] (tested concentration range 0.2-2500 nM) | 0 | 0 | 0.1 | 0 | 0 | 0 | 0 | 0 | 0.1 | 0.6 | 0.4
8 | Nc1cc(F)ccc1NC(=O)c1ccc(CNC(=O)/C=C/c2cccnc2)cc1 [Tucidinostat] (tested concentration range 1-10000 nM) | 9.6 | 2.9 | 8.9 | 5.7 | 6 | 7.6 | 3.9 | 10.1 | 3.2 | 10.6 | 2.4
9 | COC(=O)c1ccc2c(c1)[nH]c1ncnc(NCCCN3CCCCC3)c12 [UM729] (tested concentration range 1-10000 nM) | 3.6 | 0.3 | 0.1 | 0 | 0 | 3.9 | 0.2 | 1.6 | 0 | 3.3 | 0
10 | COc1cc2c(NC3CCN(C(C)C)CC3)nc(C3CCCCC3)nc2cc1OCCCN1CCCC1 [UNC0638] (tested concentration range 1-10000 nM) | 7.2 | 7.7 | 5.2 | 0 | 0 | 6.1 | 6.6 | 0 | 6.5 | 6 | 0
11 | COc1cc2c(NC3CCN(C(C)C)CC3)nc(N3CCC(F)(F)CC3)nc2cc1OCCCN1CCCC1 [UNC0642] (tested concentration range 1-10000 nM) | 5.8 | 0 | 0 | 0 | 0 | 4.8 | 1.9 | 0 | 0.7 | 4.5 | 0
12 | O=C(c1ccc(C(=O)N2CCC(N3CCCC3)CC2)c(Nc2ccccc2)c1)N1CCC(N2CCCC2)CC1 [UNC1215] (tested concentration range 1-10000 nM) | 0 | 0 | 0 | 0 | 0 | 0 | 0 | 0 | 0 | 0 | 0
13 | CCCCNc1ncc(C(=O)NCc2ccc(-n3ccnc3)cc2)c(NC2CCC(O)CC2)n1 (stereo not drawn) [UNC2881] (tested concentration range 0.2-2500 nM) | 0 | 2.6 | 0 | 0.7 | 0.1 | 0 | 4.8 | 0.1 | 2 | 1.5 | 0.7
14 | CC(C)Nc1cc(-c2c[nH]c(C(=O)N[C@H](CO)c3cccc(Cl)c3)c2)c(Cl)cn1 [Ulixertinib] (tested concentration range 1-10000 nM) | 9.6 | 0 | 1.9 | 1.2 | 2.2 | 5.7 | 4.3 | 0.3 | 2 | 6.1 | 0.2
15 | CC(C)Oc1ccc(-c2nn([C@@H](C)c3oc4ccc(F)cc4c(=O)c3-c3cccc(F)c3)c3ncnc(N)c23)cc1F [Umbralisib] (tested concentration range 0.2-2500 nM) | 0 | 2.4 | 0 | 0 | 0.9 | 0 | 0 | 0 | 0 | 3.4 | 1.1
16 | CC[C@@H]1CN(C(=O)NCC(F)(F)F)C[C@@H]1c1cnc2cnc3[nH]ccc3n12 [Upadacitinib] (tested concentration range 1-10000 nM) | 0 | 0 | 0 | 0.1 | 1.3 | 0.5 | 0 | 0.8 | 0 | 0 | 0
17 | C=CC(=O)N1CC/C(=C\c2ccc(F)c([N+](=O)[O-])c2)C(=O)/C(=C/c2ccc(F)c([N+](=O)[O-])c2)C1 [VLX1570] (tested concentration range 1-10000 nM) | 26.9 | 17.3 | 22.2 | 28 | 29.7 | 29.3 | 19.5 | 25.1 | 17.5 | 21.4 | 26.9
18 | CNC(=O)c1ccccc1Nc1cc(Nc2ccc(N3CCOCC3)cc2OC)ncc1C(F)(F)F [VS-4718] (tested concentration range 1-10000 nM) | 7.9 | 8.1 | 7.5 | 7.3 | 11.9 | 6.8 | 12.4 | 13.1 | 8.9 | 4.5 | 12.9
19 | CCCC(CCC)C(=O)O [Valproic acid] (tested concentration range 100-1000000 nM) | 0 | 1.2 | 0 | 0 | 0 | 0 | 0 | 0 | 0 | 0 | 0
20 | CCCCC(=O)OCC(=O)[C@]1(O)Cc2c(O)c3c(c(O)c2[C@@H](O[C@H]2C[C@H](NC(=O)C(F)(F)F)[C@H](O)[C@H](C)O2)C1)C(=O)c1c(OC)cccc1C3=O [Valrubicin] (tested concentration range 0.5-5000 nM) | 14.3 | 8.7 | 9.6 | 4.9 | 9.3 | 14.9 | 11.4 | 8.4 | 9.4 | 20.6 | 8.6
21 | COc1cc2/c(=N/c3ccc(Br)cc3F)nc[nH]c2cc1OCC1CCN(C)CC1 [Vandetanib] (tested concentration range 0.1-1000 nM) | 0 | 2.4 | 0 | 4.6 | 6.4 | 0.4 | 0.2 | 4.4 | 0.1 | 0 | 5.1
22 | CCc1c(C(=O)C(N)=O)c2c(OCC(=O)O)cccc2n1Cc1ccccc1 [Varespladib] (tested concentration range 1-10000 nM) | 0 | 0 | 0 | 0 | 0 | 0 | 0 | 1.3 | 0 | 0 | 0
23 | C[C@]1(c2nc3c(C(N)=O)cccc3[nH]2)CCCN1 [Veliparib] (tested concentration range 1-10000 nM) | 1.4 | 2.6 | 0.5 | 0 | 1.5 | 0.8 | 1.2 | 0 | 1.7 | 0.7 | 1.2
